Laboratory results from patent publication US6838236B1, “VPR function and activity” (priority 1993, dated 2005).

Key:
OM-10.1 cells = assay: Intracellular p24 fluorescence in OM-10.1 cells; format: cell-based; settings: vpr supernatant versus control supernatant
Experimental: In other experiments, OM-10.1 cells, which are T lymphoid in origin, were treated with either control supernatant lacking vpr or vpr supernatant from baculovirus-infected cells. Cells are shown in visible light and stained for intracellular p24 detected by fluorescence microscopy. The intensity of fluorescence is a measure of the virus expression.

[1] = test system: TE671 rhabdomyosarcoma cells; assay: Biological activity of baculovirus vpr supernatant on TE671 cells; format: cell-based, human
Excerpt: Recombinant vpr protein can be tested for biological activity in tissue culture. Vpr and control supernatants were dialyzed against PBS and applied to TE671 rhabdomyosarcoma cells. TE671 cells differentiate and cease to proliferate when transfected with the vpr gene or infected with HIV (Gras-Masse et al., supra; Levy et al., supra). […] Cells exposed to vpr for 3 days were examined for the presence of adult muscle myosin, a differentiation marker for these cells (Aguanno et al., Cancer Res., 1990, 50, 3377).

[2] = test system: human rhabdomyosarcoma cell line TE671; settings: well-described phenomenon; cited from earlier work
HIV-1 p24^gag antigen = assay: HIV-1 p24gag antigen production, antigen-capture ELISA of culture medium; format: cell-based
[3] = continuous exposure to 20% vpr supernatant

| Molecule | retrovirus expression, intracellular p24 fluorescence (OM-10.1 cells) | time to cessation of proliferation [1, 3] | time to morphological differentiation [1, 3] | effect on cell survival ([1]; exposure to greater than 20% supernatant) | morphology and growth of stimulated TE671 cells [2] | increase in p24 release (HIV-1 p24^gag antigen; pNLpuroΔvpr-transfected cells exposed to phorbol ester) [fold] | p24 release (HIV-1 p24^gag antigen; undifferentiated pNLpuro-transfected cells exposed to phorbol ester) |
| --- | --- | --- | --- | --- | --- | --- | --- |
| vpr protein: HIV-1 viral protein R produced in baculovirus-infected insect cells, used as supernatant or partially purified | induces a high level of retrovirus expression | approximately 3 days | 7-9 days | rapidly fatal | – | – | – |
| CCCCCCCCCCCCCC(=O)O[C@@H]1[C@@H](C)[C@@]2(O)[C@@H](C=C(CO)C[C@]3(O)C(=O)C(C)=C[C@@H]23)[C@@H]2C(C)(C)[C@]12OC(C)=O [phorbol myristate acetate] | – | – | – | – | increase in overall size and length, are often multinucleated, and display slowed proliferation | 3 | no measurable p24 release |
